Test results from patent publication US20220378763A1, “COMPOUND FOR TREATMENT OF ACUTE INFLAMMATION IN THE MYOCARDIUM” (CALPROTECT AB, priority 2019, published 2022).

Key:
[1] = system: Nur77 in bone marrow-derived monocytes; test: Nur77 expression in cultured bone marrow-derived monocytes stimulated with S100A9; type: cell-based, mouse; settings: S100A9 20 μg/mL, ABR-238901 100 μM, 24 h
Procedure: To obtain bone marrow-derived monocytes, bone marrow cells were isolated from femur and tibia of wild-type mice (C57BL/6NRJ) (n=3). Cells were cultured in RPMI-1640 (GIBCO Invitrogen) with 100 U/ml penicillin/streptomycin (GIBCO Invitrogen), 10% heat-inactivated fetal calf serum (FCS; GIBCO Invitrogen) and 20 ng/ml M-CSF (Peprotech) for 3 days. On day 3, unattached cells were collected, and the monocyte phenotype was confirmed by flow cytometry as CD45^+CD11b^+CD115^+ cells. The cells were re-suspended in medium and seeded at a density of 1×10^5 cells/ml. Extracellular S100A9 (20 μg/mL) with or without the S100A9 antagonist ABR-238901 at a concentration of 100 μM were incubated in the presence of 10 μM ZnCl2 (Sigma) and 2 mM CaCl2 for 15 minutes and added to the monocyte culture. Recombinant human endotoxin-free S100A9 protein was provided by Active Biotech AB. Following 24 h stimulation, intracellular Nur77 expression was analysed by flow cytometry.

[2] = system: C57BL/6 mice with sepsis induced by bacterial lipopolysaccharide; test: LPS-induced sepsis: weight loss; type: in vivo, mouse
Procedure: General animal care, induction of sepsis and treatments were performed as described under Example 7. We included 5 mice per treatment group. After induction of sepsis, the mice were monitored for 7 days (FIG. 15A). To evaluate bodyweight, mice were weighed daily at the same time points during the course of the experiment.

[3] = system: C57BL/6 mice with MI induced by permanent coronary artery ligation; test: S100A8/A9 in plasma (ELISA) and myocardium (immunohistochemistry) 3 days post-MI; type: in vivo, mouse
Procedure: Subsequently the hearts were fixed in 4% (w/v) paraformaldehyde and embedded in paraffin. The hearts were sectioned transversely from the apex to the level of the suture, and 6 μm thick sections were collected at 390 μm intervals. The sections were mounted on glass slides and stained with Van Gieson or Masson trichrome stain for quantitative analysis of scar size. Alarmin S100A8/A9 was detected using mouse anti-S100A8/A9 IgG1 antibody (Abcam, ab 130234, 1:100 dilution, O/N 4° C.). Goat anti-mouse IgG1 HRP-conjugated secondary antibody (Abcam, ab 97240, 1 h RT) was used and the staining was developed with ImmPACT™ DAB (Vector, SK-4105) chromogen as substrate. The slides were subsequently scanned using an Aperio digital pathology slide scanner (Leica Biosystems), and images were captured with the ImageScope software (Leica Biosystems). Left ventricle area and the infarcted area were measured on each section by using the BioPix iQ 2.5.0 software (Biopix AB). The size of the post-MI myocardial scar was expressed as percentage of the left ventricle volume below the coronary ligature.
Plasma levels of S100A8/A9 heterodimer was measured by DuoSet®ELISA (R&D Systems, DY8596-05), according to manufacturer instructions. All the samples were diluted 1:100 prior to analysis. Biotinylated goat anti-mouse S100A8/A9 antibody was used as […] antibody and streptavidin-HRP was used for detection. […]

[4] = system: C57BL/6 mice with sepsis induced by bacterial lipopolysaccharide; test: LPS-induced sepsis: plasma cytokines by multiplex assay; type: in vivo, mouse; settings: 24 h after sepsis induction, vs PBS
Procedure: General animal care, induction of sepsis and treatments were performed as described under Example 7. We included 5 mice per treatment group. The mice were sacrificed 24 h after sepsis induction and blood was drawn using cardiac puncture with an EDTA 0.5M coated syringe. Blood was spun down at 3000 rpm for 10 minutes and plasma was collected.
Cytokine measurements were performed using the Cytokine & Chemokine 36-Plex Mouse procartaPlex™ P1A (ThermoFischer Scientific) as per manufacturer's instructions. Data are presented as mean±SD.

[5] = system: C57BL/6 mice reconstituted with Nur77-EGFP bone marrow, with MI; test: Nur77 expression by flow cytometry in Nur77-EGFP bone marrow chimeras, day 7 post-MI; type: in vivo, mouse; settings: 7 days treatment
Procedure: Eight-week-old C57BL/6NRJ female mice were lethally irradiated with a total dose of 910 cGy. One day after irradiation, 1×10^6 total bone marrow cells harvested from donor C57BL/6-Tg(Nr4a1-EGFP/cre)820Khog/J (Nur77-EGFP) mouse and re-suspended in PBS were administered to each recipient mouse via the tail vein. Recipient mice were treated with neomycin in drinking water (2 g/L) for two weeks. Blood samples were collected from all the recipient mice at four weeks after bone marrow transfer, to confirm the success of bone marrow reconstitution by flow cytometry. The mice were used for experiments 6 weeks after bone marrow transfer (FIG. 4S).
In order to investigate the underlying molecular mechanisms involved in the […] of myocardial repair by S100A9 blockade, we induced MI in C57Bl/6 mice transplanted with Nur77-EGFP transgenic bone marrow expressing the fluorescent EGFP protein under the Nur77 promoter (FIG. 4S). The expression of Nur77 was measured by flow cytometry in blood monocytes and heart macrophages harvested on day 7 post-MI from mice receiving 7 days ABR-238901 treatment or PBS. […] Nur77 levels were unaffected in the fully-differentiated Ly6C^lo monocytes and Ly6C^loMerTK^hi macrophages (FIG. 4t; FIG. 11b). Further, we studied the influence of S100A9 on Nur77 expression and activity in monocytes and macrophages in-vitro, and the ability of ABR-238901 to inhibit these effects. Stimulation with recombinant extracellular S100A9 for 24 h increased Nur77 expression in bone marrow-derived C57BL/6 monocytes (FIG. 4U). […] Both of these effects were inhibited by ABR-238901 (FIG. 4U-V).

COc1ncc(S(=O)(=O)Nc2cncc(Cl)c2O)cc1Br [ABR-238901, 5-bromo-N-(5-chloro-4-hydroxypyridin-3-yl)-6-methoxypyridine-3-sulfonamide]
S100A9-induced increase of Nur77 expression [1]: inhibited
Decrease in body weight ([2]; day 1): 5.2%
Decrease in body weight ([2]; day 2): 11.7%
Decrease in body weight ([2]; day 3): 8.8%
Decrease in body weight ([2]; day 4): 4%
Plasma levels of S100A8/A9 ([3]; ELISA): reduced
S100A8/A9 presence in the infarcted myocardium ([3]; immunohistochemical staining): reduced
Plasma level of GM-CSF [4]: decreased
Plasma level of IFN-γ [4]: decreased
Plasma level of IL17-A [4]: decreased
Plasma level of IL-1b [4]: decreased
Plasma level of IL-6 [4]: decreased
Plasma level of IL-22 [4]: decreased
Plasma level of LIF [4]: decreased
Plasma level of LIX [4]: decreased
Plasma level of MCP-1 [4]: decreased
Intracellular Nur77 levels in blood Ly6Chi/int monocytes [5]: lower
Numbers of reparatory Ly6CloMerTKhi macrophages in the myocardium [5]: reduced
Nur77 levels in Ly6Clo monocytes [5]: unaffected
Nur77 levels in Ly6CloMerTKhi macrophages [5]: unaffected
